Source: ChEMBL document CHEMBL3885881, “DrugMatrix”

Organism: Rattus norvegicus
Assay: DrugMatrix - Regimen: Daily Repeat
Format: toxicity, organism-based, Sprague-Dawley
Parameters: regimen Daily Repeat, gender Male, age 6-8 weeks
Settings: in vivo, po, route oral GAVAGE, vehicle 100 % WATER; for ABSOLUTE BASOPHIL / ABSOLUTE EOSINOPHIL / ABSOLUTE LYMPHOCYTE / ABSOLUTE MONOCYTE / ABSOLUTE SEGMENTED NEUTROPHIL / BASOPHIL / EOSINOPHIL / ERYTHROCYTE COUNT / HEMATOCRIT / HEMOGLOBIN / LEUKOCYTE COUNT / LYMPHOCYTE / MEAN CORPUSCULAR HEMOGLOBIN / MEAN CORPUSCULAR HEMOGLOBIN CONCENTRATION / MEAN CORPUSCULAR VOLUME / MONOCYTE / NEUTROPHIL / NUCLEATED RED BLOOD CELLS / PLATELET COUNT: tissue Blood; for ALANINE AMINOTRANSFERASE / ALBUMIN / ALKALINE PHOSPHATASE / ASPARTATE AMINOTRANSFERASE / BLOOD UREA NITROGEN / CARBON DIOXIDE / CHLORIDE / CHOLESTEROL / CREATINE PHOSPHOKINASE / CREATININE / GLUCOSE / LACTATE DEHYDROGENASE / LIPASE / PHOSPHORUS / POTASSIUM / SODIUM / TOTAL BILIRUBIN / TOTAL PROTEIN / URIC ACID: tissue Plasma
[1] = 120 mg/kg, 120 h, dose level Low, time 5 day
[2] = 1200 mg/kg, 72 h, dose level High, time 3 day
[3] = 1200 mg/kg, 120 h, dose level High, time 5 day

SMILES: CCN(CC)CCNC(=O)c1cc(S(C)(=O)=O)ccc1OC [TIAPRIDE]
- ABSOLUTE BASOPHIL [1]: 0 CELLS/uL
- ABSOLUTE EOSINOPHIL [1]: 28 CELLS/uL
- ABSOLUTE LYMPHOCYTE [1]: 7405.67 CELLS/uL
- ABSOLUTE MONOCYTE [1]: 0 CELLS/uL
- ABSOLUTE SEGMENTED NEUTROPHIL [1]: 299.67 CELLS/uL
- BASOPHIL [1]: 0%
- EOSINOPHIL [1]: 0.33%
- ERYTHROCYTE COUNT [1]: 5.54 x10E6/uL
- HEMATOCRIT [1]: 34.8%
- HEMOGLOBIN [1]: 13.1 G/DL
- LEUKOCYTE COUNT [1]: 7.73 x10E3/uL
- LYMPHOCYTE [1]: 95.67%
- MEAN CORPUSCULAR HEMOGLOBIN [1]: 23.67 pg
- MEAN CORPUSCULAR HEMOGLOBIN CONCENTRATION [1]: 37.7 G/DL
- MEAN CORPUSCULAR VOLUME [1]: 62.73 fL
- MONOCYTE [1]: 0%
- NEUTROPHIL [1]: 4%
- NUCLEATED RED BLOOD CELLS [1]: 0 /100WBC
- PLATELET COUNT [1]: 1102.33 x10E3/uL
- ALANINE AMINOTRANSFERASE [1]: 42 u/L
- ALBUMIN [1]: 4.3 G/DL
- ALKALINE PHOSPHATASE [1]: 382 u/L
- ASPARTATE AMINOTRANSFERASE [1]: 80.33 u/L
- BLOOD UREA NITROGEN [1]: 15.33 mg/dL
- CARBON DIOXIDE [1]: 27.67 mmol/L
- CHLORIDE [1]: 103 MEQ/L
- CHOLESTEROL [1]: 70.67 mg/dL
- CREATINE PHOSPHOKINASE [1]: 223.33 u/L
- CREATININE [1]: 0.19 mg/dL
- GLUCOSE [1]: 142.33 mg/dL
- LACTATE DEHYDROGENASE [1]: 132.33 u/L
- LIPASE [1]: 8.33 u/L
- PHOSPHORUS [1]: 11.83 mg/dL
- POTASSIUM [1]: 6.07 MEQ/L
- SODIUM [1]: 149.23 MEQ/L
- TOTAL BILIRUBIN [1]: 0.27 mg/dL
- TOTAL PROTEIN [1]: 6.03 G/DL
- URIC ACID [1]: 0.97 mg/dL
- ABSOLUTE BASOPHIL [2]: 0 CELLS/uL
- ABSOLUTE EOSINOPHIL [2]: 187.33 CELLS/uL
- ABSOLUTE LYMPHOCYTE [2]: 11272.67 CELLS/uL
- ABSOLUTE MONOCYTE [2]: 0 CELLS/uL
- ABSOLUTE SEGMENTED NEUTROPHIL [2]: 806.67 CELLS/uL
- BASOPHIL [2]: 0%
- EOSINOPHIL [2]: 1.33%
- ERYTHROCYTE COUNT [2]: 6.23 x10E6/uL
- HEMATOCRIT [2]: 38.93%
- HEMOGLOBIN [2]: 14.8 G/DL
- LEUKOCYTE COUNT [2]: 12.27 x10E3/uL
- LYMPHOCYTE [2]: 92.33%
- MEAN CORPUSCULAR HEMOGLOBIN [2]: 23.73 pg
- MEAN CORPUSCULAR HEMOGLOBIN CONCENTRATION [2]: 38.03 G/DL
- MEAN CORPUSCULAR VOLUME [2]: 62.5 fL
- MONOCYTE [2]: 0%
- NEUTROPHIL [2]: 6.33%
- NUCLEATED RED BLOOD CELLS [2]: 0 /100WBC
- PLATELET COUNT [2]: 1394 x10E3/uL
- ALANINE AMINOTRANSFERASE [2]: 38 u/L
- ALBUMIN [2]: 4.53 G/DL
- ALKALINE PHOSPHATASE [2]: 408 u/L
- ASPARTATE AMINOTRANSFERASE [2]: 80 u/L
- BLOOD UREA NITROGEN [2]: 22.33 mg/dL
- CARBON DIOXIDE [2]: 23.33 mmol/L
- CHLORIDE [2]: 107 MEQ/L
- CHOLESTEROL [2]: 76.33 mg/dL
- CREATINE PHOSPHOKINASE [2]: 431 u/L
- CREATININE [2]: 0.22 mg/dL
- GLUCOSE [2]: 189.67 mg/dL
- LACTATE DEHYDROGENASE [2]: 523.33 u/L
- LIPASE [2]: 8.33 u/L
- PHOSPHORUS [2]: 14.8 mg/dL
- POTASSIUM [2]: 6.75 MEQ/L
- SODIUM [2]: 147.23 MEQ/L
- TOTAL BILIRUBIN [2]: 0.27 mg/dL
- TOTAL PROTEIN [2]: 6.37 G/DL
- URIC ACID [2]: 1.9 mg/dL
- ABSOLUTE BASOPHIL [3]: 0 CELLS/uL
- ABSOLUTE EOSINOPHIL [3]: 212 CELLS/uL
- ABSOLUTE LYMPHOCYTE [3]: 15513 CELLS/uL
- ABSOLUTE MONOCYTE [3]: 0 CELLS/uL
- ABSOLUTE SEGMENTED NEUTROPHIL [3]: 1775 CELLS/uL
- BASOPHIL [3]: 0%
- EOSINOPHIL [3]: 1%
- ERYTHROCYTE COUNT [3]: 5.86 x10E6/uL
- HEMATOCRIT [3]: 36.5%
- HEMOGLOBIN [3]: 13.9 G/DL
- LEUKOCYTE COUNT [3]: 17.5 x10E3/uL
- LYMPHOCYTE [3]: 89.33%
- MEAN CORPUSCULAR HEMOGLOBIN [3]: 23.73 pg
- MEAN CORPUSCULAR HEMOGLOBIN CONCENTRATION [3]: 38.1 G/DL
- MEAN CORPUSCULAR VOLUME [3]: 62.33 fL
- MONOCYTE [3]: 0%
- NEUTROPHIL [3]: 9.67%
- NUCLEATED RED BLOOD CELLS [3]: 0 /100WBC
- PLATELET COUNT [3]: 1226 x10E3/uL
- ALANINE AMINOTRANSFERASE [3]: 48.67 u/L
- ALBUMIN [3]: 4.17 G/DL
- ALKALINE PHOSPHATASE [3]: 452.67 u/L
- ASPARTATE AMINOTRANSFERASE [3]: 83.67 u/L
- BLOOD UREA NITROGEN [3]: 17.33 mg/dL
- CARBON DIOXIDE [3]: 26.33 mmol/L
- CHLORIDE [3]: 102.67 MEQ/L
- CHOLESTEROL [3]: 66 mg/dL
- CREATINE PHOSPHOKINASE [3]: 508.33 u/L
- CREATININE [3]: 0.27 mg/dL
- GLUCOSE [3]: 161.67 mg/dL
- LACTATE DEHYDROGENASE [3]: 191.33 u/L
- LIPASE [3]: 8 u/L
- PHOSPHORUS [3]: 14.53 mg/dL
- POTASSIUM [3]: 6.21 MEQ/L
- SODIUM [3]: 146.03 MEQ/L
- TOTAL BILIRUBIN [3]: 0.27 mg/dL
- TOTAL PROTEIN [3]: 6.03 G/DL
- URIC ACID [3]: 1.73 mg/dL
